Experimental data as given in EP2926812A1, “USE OF ARTEMETHER IN PREPARATION OF DRUG FOR TREATING LEUKEMIA” (Kunming Pharmaceutical Corp., priority 2012, dated 2014).

System: K562 nude mice transplanted tumor
Test: Inhibition of growth of K562 nude mice transplanted tumor (pre-trial, experiment 1, experiment 2)
Assay type: in vivo, Balb/c nude mice
Conditions: cyclophosphamide 10 ml/kg intraperitoneal; for tumor sizes: n=6; for inhibition ratio: of tumor mass
Excerpt: 2.4 K562 cell: primary K562 cell is derived from bone marrow of a patient having leukemia, introduced by Blood Research Institute from abroad, stored and passaged in Pathologic Cell Bank; cultured in RPMI1640 medium (comprising 10% fetal bovine serum).
2.6 experimental animal: Balb/c nude mice, 4~5 weeks old, weight: 17~20 g, gender: half male and half female. Experimental Animal Institute of the Chinese Academy of Medical Sciences, certification number of experimental animals: SCXK (JING) 2005-0013.
3.1.1 Balb/c nude mice were subjected to 3.0Gy whole-body irradiation, after subcutaneous inoculation of primary K562 cells. About 4 weeks after inoculation, tumor masses in growing were removed and transplanted into […], and this process was repeated for 2~3 passages to establish high oncogenic K562 cell line.
3.1.2 Nude mice were subjected to 3.0Gy whole-body irradiation, after subcutaneous inoculation of the K562 cells. One week after inoculation, nude mice with visible tumors were divided into the following 4 groups each consisting of 6 animals. The following dosages were administered for 3 continuous weeks, with 7 doses per week, a total of 21 doses.
Model control group: intraperitoneal injection of 20% aqueous solution of excipient at 0.2 ml/animal.
High dosage group: intraperitoneal injection of artemether at 150 ml/kg.
Middle dosage group: intraperitoneal injection of artemether at 100 ml/kg.
Low dosage group: intraperitoneal injection of artemether at 50 ml/kg.
Nude mice were subjected to a 3.0Gy whole-body irradiation, after subcutaneous inoculation of the K562 cells. One week after inoculation, nude mice with visible tumors were divided into the following 5 groups each consisting of 6 animals. The following dosages were administered for 3 continuous weeks, with 5 doses per week, a total of 15 doses.
Positive control group: intraperitoneal injection of cyclophosphamide at 10 ml/kg.
High dosage group: intraperitoneal injection of artemether at 100 ml/kg.
Middle dosage group: intraperitoneal injection of artemether at 60 ml/kg.
Low dosage group: intraperitoneal injection of artemether at 40 ml/kg.
Nude mice were subjected to a 3.0Gy whole-body irradiation, after subcutaneous inoculation of the K562 cells. One week after inoculation, nude mice with visible tumors were divided into the following 5 groups each consisting of 6 nude mice.
Model control group: intraperitoneal injection of 20% solution of excipient at 0.2ml/animal. The dosage was administered for 3 weeks, with 7 doses per week, a total of 21 doses.
Positive control group: intraperitoneal injection of cyclophosphamide at 10 ml/kg. The dosage was administered for 3 weeks, with 7 doses per week, a total of 21 doses.
High dosage group: intraperitoneal injection of artemether at 100 ml/kg. The dosage was administered for 3 weeks, with 5 doses per week, a total of 15 doses.
Middle dosage group: intraperitoneal injection of artemether at 60 ml/kg. The dosage was administered for 3 weeks, with 7 doses per week, a total of 21 doses.
Low dosage group: intraperitoneal injection of artemether at 40 ml/kg. The dosage was administered for 3 weeks, with 7 doses per week, a total of 21 doses.

[1] = experiment 1, 15 doses, 4 weeks after inoculation
[2] = experiment 2, 21 doses, 4 weeks after inoculation

Compound: O=P1(N(CCCl)CCCl)NCCCO1 (stereo not drawn) [Cyclophosphamide, cyclophosphamide]
- tumor sizes (experiment 1, 15 doses in 3 weeks, 1 week after inoculation): 48.1±10.9 mm3
- tumor sizes (experiment 1, 15 doses in 3 weeks, 2 weeks after inoculation): 104.9±60.3 mm3
- tumor sizes (experiment 1, 15 doses in 3 weeks, 3 weeks after inoculation): 373.7±319.9 mm3
- tumor sizes (experiment 1, 15 doses in 3 weeks, 4 weeks after inoculation): 799.0±571.3 mm3
- tumor mass [1]: 651.7 ± 544.3 mg
- tumor sizes (experiment 2, 21 doses in 3 weeks, 1 week after inoculation): 30.7±10.9 mm3
- tumor sizes (experiment 2, 21 doses in 3 weeks, 2 weeks after inoculation): 77.3±49.8 mm3
- tumor sizes (experiment 2, 21 doses in 3 weeks, 3 weeks after inoculation): 203.1 ±94.7 mm3
- tumor sizes (experiment 2, 21 doses in 3 weeks, 4 weeks after inoculation): 327.0±206.8 mm3
- tumor mass [2]: 241.7 ± 176.8 mg
- inhibition ratio [1]: 39.2%
- inhibition ratio [2]: 83.3%
